Laboratory results as given in US20160122386A1, “V1A RECEPTOR AGONISTS” (FERRING B.V., priority 2014, published 2016).
Where two headings read alike, the source gives them in different places. Starred links: 1 amine or outer side, 2 acyl side, 3 side chain; linkers in the order of their positions; H or OH if unused. Positions of bridges follow the written chain, without caps; N, C: chain ends. Non-standard residues stand in square brackets, D forms with d. Residues, ends and D or L forms follow the SMILES beside them. Chains are numbered I, II in the order given. *: point of attachment. Phe(4-Cl) = N[C@@H](Cc1ccc(Cl)cc1)C(=O)O; X2 = N=C(N)N[C@@H](CCCCN[*:1])C(=O)[*:2]; dPhe(4-Cl) = N[C@H](Cc1ccc(Cl)cc1)C(=O)O; isoGln = NC(=O)[C@H](CCC(=O)[*:2])N[*:1]; εLys = N[C@@H](CCCCN[*:1])C(=O)[*:2]; Orn = NCCC[C@H](N)C(=O)O; Dab = NCC[C@H](N)C(=O)O; PhAc = O=C(Cc1ccccc1)*

Target: T1, human V1aR (Homo sapiens, UniProt P37288)
T1 construct: expressed in transfected cells
Assay: Agonist activity at vasopressin V1a receptors, cell-based FLIPR calcium assay
Conditions: for Emax: read-out: Efficacy Avg. (%)
Method: Efficacy (% MPE) is also determined as the percentage of maximal possible effect. This agonist assay utilizes cells from a stable cell line (HEK-flpin) expressing the vasopressin V1a receptor. Intracellular calcium increase in response to agonist is measured through real-time fluorescence of an intracellular calcium-sensitive dye. Cells are exposed to varying concentrations of test agonist compounds whereupon release of intracellular calcium is measured to determine the agonist potency and efficacy.
The cell line stably expresses the lacZ-Zeocin™ fusion gene and is designed for use with the Flp-In™ expression vector containing the gene of interest and the Flp recombinase expression plasmid, pOG44. The cell line contains a single integrated Flp Recombination Target (FRT) site from pFRT/lacZeo or pFRT/lacZeo2. To generate the HEK-flpin cell line stably expressing the human V1aR, the cells were co-transfected with the Flp-In™ expression vector containing the gene of interest (pcDNA5/FRT-hV1aR) and the Flp recombinase expression plasmid pOG44. Flp recombinase mediates insertion of the Flp-In™ expression vector into the genome at the integrated FRT site through site-specific DNA recombination. Stable cell lines expressing the hV1aR from the Flp-In™ expression vector can be generated by selection using hygromycin B. See Life Technologies/Invitrogen manual, Growth and Maintenance of Flp-In™ Cell Lines, Version E, published Feb.
Efficacy of this compound was set to be 100%. A stock solution of 5 mM was made up in DMSO and stored at −20° C.
HEK-flpin-hV1aR, cmcqV1aR, dV1aR and pV1aR cells were maintained in DMEM containing 10% (v/v) FBS-HI, 4 mM GlutaMAX™-I, 25 μg/mL Hygromycin B at 37° C. under 5% CO2 in a humidified atmosphere. Subculture was achieved by splitting semi-confluent cultures 1:3 to 1:6.
All compounds were made up in 100% DMSO at 10 mM stock concentrations and stored at −20° C. The compounds were allowed to thaw just before the assay. […] Typical dilution procedure of 10× final assay concentration involved a 1:100 top dilution (e.g., 2 μl Stock into 198 μl dilution medium) followed by half-log serial dilutions (e.g., 25.3 μl into 54.7 μl dilution medium supplemented with 1% DMSO (v/v)). (Dilution media consisted of phenol-red free DMEM containing 10% FBS-HI, 4 mM GlutaMAX™-I). […] The final DMSO concentration in the assay was 0.1%.
Loading Buffer was prepared by dissolving 1 vial of Calcium 4 Assay reagent in 100 mL of 1× HBSS-20 mM Hepes buffer.
The cells were loaded with Loading Buffer as follows. Cell plates were removed from the incubator and 20 μl of Loading Buffer containing probenecid (2.5 mM) was added to each well. The cells were incubated for 1 hr at 37° C. under 5% CO2 in a humidified atmosphere. The calcium image was obtained as follows.
The cell plates were transferred to FLIPR Tetra, along with a 384 well V-bottom plate pre-loaded with half-log concentrations of test compounds at 10× final test concentrations. The remaining steps of the assay were carried forward by FLIPR Tetra. A baseline reading was taken at 1-second (s) intervals for 5s followed by the addition of 5 μl of 10× compounds (test, reference, or Blank). The agonist-induced fluorescence signal was then measured for 180 s with initial 120 readings at 1-second intervals followed by 20 readings at 3-second intervals. Overall, each well in the FLIPR assay was composed of the following components in a total volume of 50 μl: 20 μl cells; 20 μl Calcium 4 Loading Buffer; […] 10× test or reference compound.

T1 sequence (P37288 whole entry): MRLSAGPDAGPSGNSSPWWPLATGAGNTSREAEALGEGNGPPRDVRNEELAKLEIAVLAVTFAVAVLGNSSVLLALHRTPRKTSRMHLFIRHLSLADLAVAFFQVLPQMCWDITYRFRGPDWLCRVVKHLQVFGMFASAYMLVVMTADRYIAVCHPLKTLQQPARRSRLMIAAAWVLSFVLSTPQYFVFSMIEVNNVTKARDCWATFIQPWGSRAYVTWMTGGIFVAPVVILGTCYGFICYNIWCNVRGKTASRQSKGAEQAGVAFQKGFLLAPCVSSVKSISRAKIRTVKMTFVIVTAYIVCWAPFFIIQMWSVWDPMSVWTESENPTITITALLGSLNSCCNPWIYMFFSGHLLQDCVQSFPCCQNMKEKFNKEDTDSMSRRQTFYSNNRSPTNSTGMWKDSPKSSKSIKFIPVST

SMILES | EC50 | Emax | EC50 (HEK-flpin cells stably expressing hV1aR, intracellular calcium fluorescence, averaged, read-out: EC50 (Avg))
CC[C@H](C)[C@@H]1NC(=O)[C@H](Cc2ccccc2)NC(=O)[C@@H](N)CSSC[C@@H](C(=O)N2CCC[C@H]2C(=O)N[C@@H](CCCNC(=O)[C@@H](N)CCCCNC(=O)CC[C@H](NC(=O)[C@H](CCCNC(=N)N)NC(=O)[C@@H]2CCCN2C(=O)[C@H](CCCNC(=N)N)NC(=O)[C@H](CC(N)=O)NC(=O)[C@H](CCC(N)=O)NC(=O)[C@H](Cc2ccccc2)NC(=O)[C@@H](Cc2ccc(Cl)cc2)NC(=O)Cc2ccccc2)C(N)=O)C(=O)NCC(N)=O)NC(=O)[C@H](CC(N)=O)NC(=O)[C@H](CCC(N)=O)NC1=O [Compound 25] (I: H-CFIQNCP[Orn]G-NH2 / II: PhAc-[dPhe(4-Cl)]FQNRPR[isoGln][εLys]; disulfide I:1-I:6; amide I:8-II:C) | 1.4 nM | 49% | 
CC[C@H](C)[C@@H]1NC(=O)[C@H](Cc2ccccc2)NC(=O)[C@@H](N)CSSC[C@@H](C(=O)N2CCC[C@H]2C(=O)N[C@@H](CCCNC(=O)[C@H](CCCCNC(=O)CC[C@H](NC(=O)[C@H](CCCNC(=N)N)NC(=O)[C@@H]2CCCN2C(=O)[C@H](CCCNC(=N)N)NC(=O)[C@H](CC(N)=O)NC(=O)[C@H](CCC(N)=O)NC(=O)[C@H](Cc2ccccc2)NC(=O)[C@@H](Cc2ccc(OC)cc2)NC(=O)Cc2ccccc2)C(N)=O)NC(=N)N)C(=O)NCC(N)=O)NC(=O)[C@H](CC(N)=O)NC(=O)[C@H](CCC(N)=O)NC1=O [Compound 26] (I: H-CFIQNCP[Orn]G-NH2 / II: PhAc-[dY](Me)FQNRPR[isoGln][X2]; disulfide I:1-I:6; amide I:8-II:C) | 0.93 nM | 32% | 
CC[C@H](C)[C@@H]1NC(=O)[C@H](Cc2ccccc2)NC(=O)[C@@H](N)CSSC[C@@H](C(=O)N2CCC[C@H]2C(=O)N[C@@H](CCCNC(=O)[C@@H](N)CCCCNC(=O)CC[C@H](NC(=O)[C@H](CCCNC(=N)N)NC(=O)[C@@H]2CCCN2C(=O)[C@H](CCCNC(=N)N)NC(=O)[C@H](CC(N)=O)NC(=O)[C@H](CCC(N)=O)NC(=O)[C@H](Cc2ccccc2)NC(=O)[C@H](Cc2ccc(Cl)cc2)NC(=O)Cc2ccccc2)C(N)=O)C(=O)NCC(N)=O)NC(=O)[C@H](CC(N)=O)NC(=O)[C@H](CCC(N)=O)NC1=O [Compound 27] (I: H-CFIQNCP[Orn]G-NH2 / II: PhAc-[Phe(4-Cl)]FQNRPR[isoGln][εLys]; disulfide I:1-I:6; amide I:8-II:C) | 1 nM | 70% | 
CC[C@H](C)[C@@H]1NC(=O)[C@H](Cc2ccccc2)NC(=O)[C@@H](N)CSSC[C@@H](C(=O)N2CCC[C@H]2C(=O)N[C@@H](CCCNC(=O)[C@@H](N)CCCCNC(=O)CC[C@H](NC(=O)[C@H](CCCNC(=N)N)NC(=O)[C@@H]2CCCN2C(=O)[C@H](C)NC(=O)[C@H](CC(N)=O)NC(=O)[C@H](CCC(N)=O)NC(=O)[C@H](Cc2ccccc2)NC(=O)[C@@H](Cc2ccc(OC)cc2)NC(=O)Cc2ccccc2)C(N)=O)C(=O)NCC(N)=O)NC(=O)[C@H](CC(N)=O)NC(=O)[C@H](CCC(N)=O)NC1=O [Compound 28] (I: H-CFIQNCP[Orn]G-NH2 / II: PhAc-[dY](Me)FQNAPR[isoGln][εLys]; disulfide I:1-I:6; amide I:8-II:C) | 1.2 nM | 44% | 
CC[C@H](C)[C@@H]1NC(=O)[C@H](Cc2ccccc2)NC(=O)[C@@H](N)CSSC[C@@H](C(=O)N2CCC[C@H]2C(=O)N[C@@H](CCNC(=O)[C@H](CCCCNC(=O)CC[C@H](NC(=O)[C@H](CCCNC(=N)N)NC(=O)[C@@H]2CCCN2C(=O)[C@H](C)NC(=O)[C@H](CC(N)=O)NC(=O)[C@H](CCC(N)=O)NC(=O)[C@H](Cc2ccccc2)NC(=O)[C@@H](Cc2ccc(OC)cc2)NC(=O)Cc2ccccc2)C(N)=O)NC(=N)N)C(=O)NCC(N)=O)NC(=O)[C@H](CC(N)=O)NC(=O)[C@H](CCC(N)=O)NC1=O [Compound 29] (I: H-CFIQNCP[Dab]G-NH2 / II: PhAc-[dY](Me)FQNAPR[isoGln][X2]; disulfide I:1-I:6 (inferred); amide I:8-II:C (inferred)) | 1.2 nM | 39% | 
CC[C@H](C)[C@@H]1NC(=O)[C@H](Cc2ccccc2)NC(=O)[C@@H](O)CSSC[C@@H](C(=O)N2CCC[C@H]2C(=O)N[C@@H](CCNC(=O)[C@@H](N)CCCCNC(=O)CC[C@H](NC(=O)[C@H](CCCNC(=N)N)NC(=O)[C@@H]2CCCN2C(=O)[C@H](C)NC(=O)[C@H](CC(N)=O)NC(=O)[C@H](CCC(N)=O)NC(=O)[C@H](Cc2ccccc2)NC(=O)[C@@H](Cc2ccc(OC)cc2)NC(=O)Cc2ccccc2)C(N)=O)C(=O)NCC(N)=O)NC(=O)[C@H](CC(N)=O)NC(=O)[C@H](CCC(N)=O)NC1=O [Compound 30] | 1.1 nM | 50% | 
CC[C@H](C)[C@@H]1NC(=O)[C@H](Cc2ccccc2)NC(=O)[C@@H](O)CSSC[C@@H](C(=O)N2CCC[C@H]2C(=O)N[C@@H](CCNC(=O)[C@@H](N)CCCCNC(=O)CC[C@H](NC(=O)[C@H](CCCNC(=N)N)NC(=O)[C@@H]2CCCN2C(=O)[C@H](CCCNC(=N)N)NC(=O)[C@H](CC(N)=O)NC(=O)[C@H](CCC(N)=O)NC(=O)[C@H](Cc2ccccc2)NC(=O)[C@@H](Cc2ccc(OC)cc2)NC(=O)Cc2ccccc2)C(N)=O)C(=O)NCC(N)=O)NC(=O)[C@H](CC(N)=O)NC(=O)[C@H](CCC(N)=O)NC1=O [Compound 31] | 0.83 nM | 63% | 
CC[C@H](C)[C@@H]1NC(=O)[C@H](Cc2ccccc2)NC(=O)[C@@H](O)CSSC[C@@H](C(=O)N2CCC[C@H]2C(=O)N[C@@H](CCNC(=O)[C@@H](N)CCCCNC(=O)CC[C@H](NC(=O)[C@H](CCCNC(=N)N)NC(=O)[C@@H]2CCCN2C(=O)[C@H](CCCCN)NC(=O)[C@H](CC(N)=O)NC(=O)[C@H](CCC(N)=O)NC(=O)[C@H](Cc2ccccc2)NC(=O)[C@@H](Cc2ccc(OC)cc2)NC(=O)Cc2ccccc2)C(N)=O)C(=O)NCC(N)=O)NC(=O)[C@H](CC(N)=O)NC(=O)[C@H](CCC(N)=O)NC1=O [Compound 32] | 1 nM | 56% | 
CC[C@H](C)[C@@H]1NC(=O)[C@H](Cc2ccccc2)NC(=O)[C@@H](O)CSSC[C@@H](C(=O)N2CCC[C@H]2C(=O)N[C@@H](CCNC(=O)[C@@H](N)CCCCNC(=O)CC[C@H](NC(=O)[C@H](CCCNC(=N)N)NC(=O)[C@@H]2CCCN2C(=O)[C@H](CCCCN)NC(=O)[C@H](CC(N)=O)NC(=O)[C@H](CCC(N)=O)NC(=O)[C@H](Cc2ccccc2)NC(=O)[C@@H](Cc2ccc(OC)cc2)NC(=O)CC(C)C)C(N)=O)C(=O)NCC(N)=O)NC(=O)[C@H](CC(N)=O)NC(=O)[C@H](CCC(N)=O)NC1=O [Compound 33] |  | 50% | 1.1 nM
CC[C@H](C)[C@@H]1NC(=O)[C@H](Cc2ccccc2)NC(=O)[C@@H](N)CSSC[C@@H](C(=O)N2CCC[C@H]2C(=O)N[C@@H](CCNC(=O)[C@@H](N)CCCCNC(=O)CC[C@H](NC(=O)[C@H](CCCNC(=N)N)NC(=O)[C@@H]2CCCN2C(=O)[C@H](CCCCN)NC(=O)[C@H](CC(N)=O)NC(=O)[C@H](CCC(N)=O)NC(=O)[C@H](Cc2ccccc2)NC(=O)[C@@H](Cc2ccc(OC)cc2)NC(=O)Cc2ccccc2)C(N)=O)C(=O)NCC(N)=O)NC(=O)[C@H](CC(N)=O)NC(=O)[C@H](CCC(N)=O)NC1=O [Compound 35] (I: H-CFIQNCP[Dab]G-NH2 / II: PhAc-[dY](Me)FQNKPR[isoGln][εLys]; disulfide I:1-I:6; amide I:8-II:C) | 1.2 nM | 43% | 
